# Measured values reported in PubChem BioAssay (NCI).
#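 Exposure lasted 48 hours, with cells grown in 96-well plates and compounds tested at five concentrations. At the GI50, growth is halved. Definition used: TGI = concentration required for complete inhibition of growth.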
# Legend:
# Assay in all cases: NCI tumour cell line growth inhibition, 48 h
# HT29 colon = test system: HT29 colon
# SF-295 CNS = test system: SF-295 CNS
# OVCAR-3 ovarian = test system: OVCAR-3 ovarian
# A549 NSCLC = test system: A549 NSCLC
# SK-MEL-5 melanoma = test system: SK-MEL-5 melanoma
# CCRF-CEM leukemia = test system: CCRF-CEM leukemia
# IGROV1 ovarian = test system: IGROV1 ovarian
# TK-10 renal = test system: TK-10 renal
SMILES,GI50 (HT29 colon) [µM],TGI (HT29 colon) [µM],GI50 (SF-295 CNS) [µM],TGI (SF-295 CNS) [µM],GI50 (OVCAR-3 ovarian) [µM],TGI (OVCAR-3 ovarian) [µM],GI50 (A549 NSCLC) [µM],TGI (A549 NSCLC) [µM],GI50 (SK-MEL-5 melanoma) [µM],TGI (SK-MEL-5 melanoma) [µM],GI50 (CCRF-CEM leukemia) [µM],TGI (CCRF-CEM leukemia) [µM],GI50 (IGROV1 ovarian) [µM],TGI (IGROV1 ovarian) [µM],GI50 (TK-10 renal) [µM],TGI (TK-10 renal) [µM]
COc1cc2c(cc1OCCCCCn1c(-c3ccco3)nc3ccccc31)N=C[C@@H]1CCCN1C2=O,< 0.01,> 100,< 0.01,0.0227,< 0.01,< 0.01,< 0.01,> 100,< 0.01,< 0.01,< 0.01,0.09,< 0.01,13.2,0.0267,35.6
Cc1cc(NCCCCNc2ccnc3cc(Cl)ccc23)nc(Nc2ccc(C(=O)N3CCCC3)cc2)n1,2.37,7.8,1.78,3.64,1.78,3.81,3.29,10.7,1.7,3.13,2.86,> 100,3.58,13.4,1.84,4.25
N#Cc1c(NC(=O)c2cccc3ccccc23)sc2c1CCCC2,0.0716,0.224,0.0109,> 25,0.0417,0.107,0.0788,> 25,0.0844,1.62,0.0422,> 25,0.177,> 25,–,–
COc1cc2c3c(n(CCCCNC(=O)OCC4c5ccccc5-c5ccccc54)c(=O)c2cc1OC)-c1cc2c(cc1C3=O)OCO2,16.9,> 100,> 100,> 100,19.8,62.5,17.4,> 100,23.4,> 100,2.75,> 100,17.9,> 100,56.3,> 100
CCN(CC)CCCNc1nc2ccccc2c2c(=O)c3cc(Cl)ccc3sc12,1.9,3.98,7.96,21.9,1.92,4.15,2.02,4.52,3.11,11.3,2.81,8.68,1.36,3.1,2.15,3.97
COc1ccc(Cn2cnc3cc(C(=O)Nc4cccc5ccccc45)ccc32)c(OC)c1,0.0345,5.18,0.0341,> 100,0.0267,0.0776,0.0644,> 100,0.0502,6.71,0.0407,> 100,0.0653,> 100,1.17,> 100
COc1cc2c3c(n(CCCNC(=O)OCC4c5ccccc5-c5ccccc54)c(=O)c2cc1OC)-c1cc2c(cc1C3=O)OCO2,> 100,> 100,0.751,> 100,> 100,> 100,> 100,> 100,28.2,> 100,–,–,> 100,> 100,> 56.2,> 100
Cc1cc(O)ccc1O,49.8,> 100,34.9,> 100,14.1,27.9,> 100,> 100,62,> 100,3.4,> 100,16.6,31,19.5,35
CS(=O)(=O)Nc1cccc(-c2ccc3c(NC(=O)C4CC4)n[nH]c3c2)c1,3.88,> 25,5.65,> 25,0.641,1.96,10.9,> 25,0.641,> 13,1.33,> 25,16.3,> 25,24.6,> 25
O=C1CSC(=S)N1Cc1cccnc1,3.9,11.9,37.7,> 100,3.39,12.1,23.9,58.9,24.5,71.6,4.37,86.2,4.4,19,2.84,7.14
CC(=O)c1c(O)ccc2c(C)c(C(=O)O)oc12,> 100,> 100,> 100,> 100,> 100,> 100,> 100,> 100,> 100,> 100,> 100,> 100,> 100,> 100,> 100,> 100
COC(=O)c1cc2c3ccccc3n3c(=O)c4cc5cc(OC)c(N(S(=O)(=O)c6ccc(C)cc6)S(=O)(=O)c6ccc(C)cc6)cc5nc4c(n1)c23,> 100,> 100,5.15,21.7,> 100,> 100,> 100,> 100,> 100,> 100,–,–,–,–,8.92,23.6
O=c1[nH]ccc2nc(-c3ccc(CN4CCC(c5nc(-c6ccccn6)n[nH]5)CC4)cc3)c(-c3ccccc3)cc12,1.98,> 100,1.11,19.9,0.904,> 66.3,16.2,> 100,6.03,24,2.04,> 100,0.0652,> 100,3.37,30.4
CCCCCCCCCCCCCCCCOC(=O)c1c(C)[nH]c(/C=C2\N=C(c3ccc[nH]3)C=C2OC)c1C,0.083,> 100,2.7,11,1.67,6.91,0.239,12.8,0.119,0.703,32.9,> 100,1.06,9.4,0.759,3.36
CCCCCCCCCCCCSC(=NC)NC,2.06,9.33,1.91,3.86,2,4.82,2.12,4.76,1.48,2.85,2.63,9.97,2.52,5.83,1.71,3.49
